The text below walks through data of patent publication US20080071116A1, “Modulators of Lysophosphatidic Acid (Lpa) Signaling and the Use Thereof” (THE BOARD OF REGENTS OF THE UNIVERSITY OF TEXAS SYSTEM, priority 2004, published 2008).

“Also recorded” adds a separate entry of the source.

For experiment [1], the system named is DU145 cells. Nature of the experiment: calcium mobilization assay in androgen insensitive prostate cancer DU145 cells. The class given is cell-based, human. In general terms: Calcium flux is commonly read through the fluorescence of an indicator in the cells.
Experiment [2] deals with PC-3 cells. The experiment can be described thus: lamellipodia formation in PC-3 cells. Particulars: 30 μM; for effect on spontaneously activated lamellipodia: PC-3, serum-free, FIGS. 38-40; for inhibition of 18:1 LPA-induced lamellipodia formation: PC-3, FIGS. 42-44. The class given is cell-based, human.
Experiment [3] deals with PC-3 cells. The experiment can be described thus: cell growth (cell viability) in PC-3 cells. Particulars: for inhibition of cell growth (cell viability): PC-3. Type of experiment: cell-based, human.
Experiment [4] has as its system HT29 cells. Nature of the experiment: calcium mobilization assay in colon cancer HT29 cells. Type of experiment: cell-based. The protocol:
(§1) The procedures for these calcium mobilization assays are as followed: OVCAR3 cells and PC-3 cells were cultured in RPMI 1640 medium with 10% FBS (fetal bovine serum). HT29 cells were cultured in DMEM (high glucose) medium with 10% FBS. All cells were cultured at about 37° C. in a humidified atmosphere with 5% CO2. After starvation in serum-free medium for about 12-24 hours, cells were harvested and loaded with about 1 μM of Indo-1 AM in serum-free medium for about 45 min at 37° C. Cells were washed in PBS and resuspended at 2×10^6 cells/ml in a [Ca^2+]i assay buffer (Sodium chloride, NaCl, about 140 mM, potassium chloride, KCl, about 2 mM, magnesium chloride, MgCl2, about 1 mM, calcium chloride, CaCl2, about 2 mM, in about 25 mM HEPES buffer at pH 7.4 with about 10 mM of glucose). Cytoplasmic [Ca^2+]i was determined at an excitation wavelength of about 331 nm and an emission wavelength of 410 nm using a fluorescence spectrophotometer (Hitachi, F-4000). Approximately 3×10^6 cells were used for [Ca^2+]l determination in a stirred quartz cuvette kept at about 37° C. OMPT or 18:1 LPA was dissolved in about 0.1% BSA/PBS solution and applied immediately to the cells. To test other LPA derivatives of the invention, cells were exposed to the derivatives for about 3 minutes or for a period of various times in time course related experiments before a LPA agonist, such as 18:1 LPA, OMPT, or other LPAs was applied into the cuvette.
(§2) The concentration of calcium mobilization giving the half-maximal response (EC50) was obtained from the concentration-response curve fitted to a sigmoidal logistic equation, with the maximal calcium response set to 100% using the GraphPad Prism. Maximal response value is expressed as mean +/−s.e.m. EC50 value is expressed with 95% confidence.

The test system of experiment [5] is PC-3 cells. Nature of the experiment: calcium mobilization assay in androgen insensitive prostate cancer PC-3 cells. Type of experiment: cell-based, human. The protocol: as §1, §2
The test system of experiment [6] is DU145 cells. The experiment can be described thus: cell growth (cell viability) in DU145 cells. Type of experiment: cell-based, human.
The next experiment concerns the target LPA1 receptor (Homo sapiens, UniProt Q92633). The experiment can be described thus: calcium mobilization in Sf9 insect cells expressing LPA1. The class given is cell-based. Particulars: Sf9 cells expressing LPA1.
Another experiment relates to ERK1/2. The experiment can be described thus: ERK1/2 (p42/p44-MAPK) phosphorylation immunoblot in prostate cancer cells. Type of experiment: cell-based, human. The protocol: (§3) The cells were then lysed in SDA sample buffer or ice-cold X-100 lysis buffer (1% Triton X-100, 50 mM HEPES [pH7.4], 150 mM NaCl, 1.5 mM MgCl2, 1 mM EGTA, 10% glycerol, 100 mM NaF, 10 mM Na pyrophosphate, and 1 mM aprotinin). Total cellular protein was resolved by SDS/PAGE, transferred to immobilon [poly (vinylidene difluoride)], and immunoblotted with antibodies following the protocols provided by manufactures. Immunocomplexes were visualized with an enhanced chemiluminescence detection kit (Amersham Pharmacia) using horseradish peroxidase-conjugated secondary antibodies (Bio-Rad).
(In general: Immunoblotting shows a protein as a band on a membrane.)

The next experiment concerns AKT. The experiment can be described thus: AKT phosphorylation immunoblot in prostate cancer cells. Particulars: PC-3 and DU145 cells. Type of experiment: cell-based, human. The protocol: as §3
For a further experiment, the system named is p38-MAPK. Nature of the experiment: p38-MAPK activation, phosphospecific antibodies. The class given is cell-based, human. Particulars: PC-3 and DU145 cells. On the procedure:
as §3

Experiment [7] concerns vasodilator-stimulated protein (VASP). Nature of the experiment: VASP phosphorylation in PC-3 cells. Type of experiment: cell-based, human. On the procedure:
as §3
To determine the mechanisms regulating LPA-induced cell migration, actin filament binding proteins that link receptor signaling to lamellipodia formation were evaluated.

For the next experiment, the system named is PKA. Nature of the experiment: PKA activation in PC-3 cells. Type of experiment: cell-based, human.
For experiment [8], the system named is PC-3 cells. The experiment can be described thus: cellular proliferation and growth factor withdrawal-induced apoptosis. Type of experiment: cell-based, human.
Experiment [9] has as its system PC-3 cells. Nature of the experiment: membrane ruffling and cell migration in PC-3 cells. The class given is cell-based, human.
Experiment [10] concerns HT29 cells. Nature of the experiment: lamellipodia formation in colon cancer HT29 cells. The class given is cell-based. Particulars: HT29, FIG. 26.
A further experiment addresses T1, LPA3 receptor (Homo sapiens, UniProt Q9UBY5).
T1 sequence (Q9UBY5 1-353): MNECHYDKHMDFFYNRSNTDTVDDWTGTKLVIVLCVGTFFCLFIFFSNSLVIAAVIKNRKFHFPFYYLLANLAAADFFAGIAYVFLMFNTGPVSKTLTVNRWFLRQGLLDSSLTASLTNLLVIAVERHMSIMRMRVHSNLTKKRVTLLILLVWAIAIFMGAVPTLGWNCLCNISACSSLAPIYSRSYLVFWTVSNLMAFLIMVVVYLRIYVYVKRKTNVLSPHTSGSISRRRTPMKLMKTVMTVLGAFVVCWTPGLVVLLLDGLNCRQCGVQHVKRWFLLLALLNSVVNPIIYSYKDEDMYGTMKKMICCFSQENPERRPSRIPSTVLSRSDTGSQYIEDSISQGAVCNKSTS
The experiment can be described thus: calcium mobilization in Sf9 insect cells expressing LPA3. The arrangement: expressed in transfected cells; host or cells: Sf9 insect cells. Type of experiment: cell-based.

In another experiment the target is LPA2 receptor (Homo sapiens, UniProt Q9HBW0). Nature of the experiment: calcium mobilization in Sf9 insect cells expressing LPA2. Type of experiment: cell-based. The arrangement: expressed in transfected cells; host or cells: Sf9 insect cells. Particulars: Sf9 cells expressing LPA2; read-out: EC50 of increase in intracellular calcium concentration.
Sequence of LPA2 receptor (Q9HBW0 whole entry): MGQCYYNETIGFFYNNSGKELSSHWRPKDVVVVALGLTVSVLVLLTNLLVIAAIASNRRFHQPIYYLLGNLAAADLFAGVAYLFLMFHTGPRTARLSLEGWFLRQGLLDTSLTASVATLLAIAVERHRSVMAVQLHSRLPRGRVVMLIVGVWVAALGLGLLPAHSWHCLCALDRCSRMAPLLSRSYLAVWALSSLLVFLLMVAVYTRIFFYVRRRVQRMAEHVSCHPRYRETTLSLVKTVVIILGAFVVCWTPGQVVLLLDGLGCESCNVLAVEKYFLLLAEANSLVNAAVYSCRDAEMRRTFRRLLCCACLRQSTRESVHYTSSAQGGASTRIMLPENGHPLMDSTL
The test system of the next experiment is OVCAR3 cells. The experiment can be described thus: calcium mobilization assay in ovarian cancer OVCAR3 cells. The class given is cell-based, human. Particulars: OVCAR3. The protocol: as §1, §2
In experiment [11] the test system is DU145 cells. Nature of the experiment: cell migration of DU145 cells. Type of experiment: cell-based, human.
Another experiment concerns Jurkat T cells. Particulars: human Jurkat T cells; Xu et al. 1995; cited from earlier work.
[12] abbreviates: in the presence of 10 μM of 18:1 LPA, FIGS. 45-47.

Sequence of LPA1 receptor (Q92633 whole entry): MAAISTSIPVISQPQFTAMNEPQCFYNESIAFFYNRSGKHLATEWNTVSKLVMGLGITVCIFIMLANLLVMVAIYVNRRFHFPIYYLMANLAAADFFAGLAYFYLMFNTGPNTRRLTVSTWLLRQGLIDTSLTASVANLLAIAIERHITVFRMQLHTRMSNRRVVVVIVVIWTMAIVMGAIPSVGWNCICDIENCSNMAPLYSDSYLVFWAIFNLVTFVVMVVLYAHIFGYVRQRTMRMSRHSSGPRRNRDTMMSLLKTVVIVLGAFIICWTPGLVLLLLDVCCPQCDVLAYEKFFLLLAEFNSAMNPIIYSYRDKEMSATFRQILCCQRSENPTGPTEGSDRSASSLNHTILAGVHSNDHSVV

Regarding `CCCCCCCCCCCCCC(=O)OC[C@@H](O)COP(=O)(O)OCC(O)CO` (mixture of isomers) [14:0 LPG, 1-myristoyl-2-hydroxy-sn-glycero-3-[phospho-rac-(1-glycerol)]], the “inhibition of 14:0 LPA-induced calcium mobilization” value in the experiment with DU145 cells [1] was “inhibited calcium mobilization; also recorded: effective inhibitor/antagonist”. In addition, in the experiment with PC-3 cells [2], the “effect on spontaneously activated lamellipodia” value is “negligible effect” and the “inhibition of 18:1 LPA-induced lamellipodia formation” value was “no inhibition”. The “inhibition of cell growth (cell viability)” value in the experiment with PC-3 cells [3] (setting [12]) is on record as “inhibition of cell growth (cell viability) at high concentrations”.
Consider `CCCCCCCC/C=C\CCCCCCCC(=O)OC[C@@H](O)COP(=O)(O)OCC(O)CO` (mixture of isomers) [18:1 LPG, 1-oleoyl-2-hydroxy-sn-glycero-3-[phospho-rac-(1-glycerol)]], for which, in the experiment with HT29 cells [4] (HT29 cells (only express LPA2), FIGS. 21-22), the “inhibition of (18:1) LPA-induced calcium mobilization” value was “effective inhibitors/antagonists”. In addition, the “inhibition of OMPT-induced calcium mobilization” value with PC-3 cells [5] (FIGS. 19-20) was “effective inhibitor/antagonist”. In addition, the “antagonism of 18:1 LPA-induced calcium mobilization” value was “completely antagonized” in the experiment with DU145 cells [1] (10 and 30 μM in FIGS. 15-18); “shifted to the right” in the experiment with DU145 cells [1] (10 and 30 μM in FIGS. 15-18, listed as 18:1-acyl-LPG). Also, the “effect on spontaneously activated lamellipodia” value in the experiment with PC-3 cells [2] is “inhibit spontaneously activated lamellipodia”. Also, in the experiment on PC-3 cells [2], the “inhibition of 18:1 LPA-induced lamellipodia formation” value is on record as “inhibition of 18:1 LPA-induced LPA2 receptor mediated lamellipodia formation”. In addition, the “inhibition of cell growth (cell viability)” value in the experiment on PC-3 cells [3] (setting [12]) is listed as “inhibition of cell growth (cell viability) at high concentrations”; in the experiment on PC-3 cells [3] (without LPA, FIGS. 46-47), “inhibition of cell growth (cell viability) at high concentrations”. Further, the “reduction of cell viability / cell growth” value in the experiment on PC-3 cells [3] (PC-3 cells) and in the experiment on DU145 cells [6] was “reduced cell viability” throughout.
Turning to `CCCCCCCCCCCCCC(=O)OC[C@@H](O)COP(=O)(O)O` [14:0 LPA, reference compound], the EC50 is roughly 98 nM with PC-3 cells [5] and 0.1 nM on LPA2 receptor. For the same molecule, the “elevation of intracellular calcium” value on LPA1 receptor is given as “no elevated intracellular calcium concentration is observed”. For the same molecule, the “activation of p42/p44-MAPK” value in the experiment on ERK1/2 (PC-3 and DU145 cells) is “efficiently activates p42/p44-MAPK”. Moreover, the “activation of AKT” value with AKT is listed as “only marginal effects”. The “activation of p38-MAPK” value in the experiment on p38-MAPK is listed as “only marginal effects”. In addition, the “induction of VASP phosphorylation at Ser157 PKA site” value in experiment [7] is “induced phosphorylation”. Besides, the “activation of PKA” value in the experiment on PKA is recorded as “efficiently activate PKA”. In addition, the “cellular proliferation and prevention of growth factor withdrawal-induced apoptosis” value with PC-3 cells [8] is “does not increase cellular proliferation”. Besides, the “stimulation of membrane ruffling and cell migration” value with PC-3 cells [9] is “stimulate membrane ruffling and cell migration”. Moreover, in the experiment with HT29 cells [10], the activation of lamellipodia entry is on record as “strong activator of lamellipodia”. For the same molecule, on LPA3 receptor, the calcium mobilization entry is “no elevated intracellular calcium concentration is observed”.
For the molecule `O=S(=O)(NCCNC/C=C/c1ccc(Br)cc1)c1cccc2cnccc12` [H-89], in the experiment on PC-3 cells [9], the “inhibition of membrane ruffling and cell migration induced by 18:1 LPA and 14:0 LPA” value is “completely inhibited membrane ruffling and cell migration”.
On to “D-3-deoxy-phosphophatidyl-myo-inositol ether lipid [DPIEL]”, for which the “inhibition of (18:1) LPA-induced calcium mobilization” value in the experiment on HT29 cells [4] (HT29 cells (express only LPA2), FIG. 6) is on record as “does not inhibit calcium mobilization”. The “maximum calcium response to OMPT” value with OVCAR3 cells (DPIEL about 10 μM exposed group (control about 123.5+/−16.4 nM)) is “about 136.1+/−16.6 nM”. In addition, the “suppression of the maximum response to OMPT” value with OVCAR3 cells (about 20 μM DPIEL) is reported as “about 36%”. Besides, in the experiment with PC-3 cells [5] (FIG. 7), the “suppression of maximum calcium mobilization induced by 18:1 LPA” value is listed as “about 56%”. Also, the “inhibition of EGF-induced phosphorylation of ERK1/2” value in the experiment with ERK1/2 (LNCaP cells, FIG. 8B) is given as “fails to reduce EGF-induced phosphorylation of ERK1/2”. Moreover, the “inhibition of ERK1/2 phosphorylation activated by 18:1 LPA and 14:0 LPA” value in the experiment on ERK1/2 (PC-3 cells, DPIEL about 30 minutes, FIG. 8A) is given as “inhibits phosphorylation of the extracellular signal-regulating kinase (ERK1/2)”. Further, the “inhibition of VASP phosphorylation” value in [7] is listed as “inhibits phosphorylation of vasodilator stimulated protein (VASP)”. Moreover, the “inhibition of LPA-induced cell migration” value in the experiment on PC-3 cells [9] and in the experiment on DU145 cells [11] was “inhibits” throughout.
Consider EGF: epidermal growth factor, for which the “induction of VASP phosphorylation at Ser157 PKA site” value in experiment [7] was “Neither OMPT nor EGF increased phosphorylation of VASP”.
For lysophosphatidyl glycerol [LPG], the “inhibition of LPA signaling” value with Jurkat T cells is given as “inhibitor of LPA signaling”.
